According to patent US8435978B2, “Substituted sulfonamide compounds” (Gruenenthal GmbH, priority 2006, dated 2013):
Structures can show the parent of a compound that is named as a salt.

Columns and labels:
human B1R receptor = target: T1, human B1R receptor (Homo sapiens, UniProt P46663); assay: Functional study on the bradykinin receptor 1 (B1R), FLIPR Ca2+ assay, hB1R cells; assay type: cell-based; conditions: agonist Lys-Des-Arg9-bradykinin 0.5 nM, % inhibition compared with the maximum achievable inhibition; for inhibition at 10 µM: CHO-K1, test substance 10 μM, read-out: B1R Antagonism, human [10 μM] % Inhibition
T1 construct: host or cells: CHO K1 cells (Chinese hamster ovary), stably transfected
T1 sequence (P46663 1-353): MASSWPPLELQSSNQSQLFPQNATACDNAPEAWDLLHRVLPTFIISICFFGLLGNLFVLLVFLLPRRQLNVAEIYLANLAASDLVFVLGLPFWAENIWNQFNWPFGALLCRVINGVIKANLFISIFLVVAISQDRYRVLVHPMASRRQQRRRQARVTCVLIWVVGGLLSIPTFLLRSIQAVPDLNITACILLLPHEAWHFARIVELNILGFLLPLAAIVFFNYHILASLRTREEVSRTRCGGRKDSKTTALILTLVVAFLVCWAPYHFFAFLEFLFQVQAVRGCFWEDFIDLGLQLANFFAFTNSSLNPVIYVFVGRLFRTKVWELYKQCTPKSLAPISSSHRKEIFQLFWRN
Outline: (§1)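 Cells were dye-loaded 60 min at 37 °C, equilibrated 20 min at room temperature, then given 10 μM compound. Ten minutes later the species-matched agonist was added (0.5 nM Lys-Des-Arg9-bradykinin, human; 100 nM Des-Arg9-bradykinin, rat) and Ca2+ influx suppression expressed as % of maximum inhibition.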

B1R receptor of the rat = target: T2, B1R receptor of the rat (Rattus norvegicus, UniProt P97583); assay: Functional study on the bradykinin receptor 1 (B1R), FLIPR Ca2+ assay, rB1R cells; assay type: cell-based; conditions: agonist Des-Arg9-bradykinin 100 nM, % inhibition compared with the maximum achievable inhibition; for inhibition at 10 µM: CHO-K1, test substance 10 μM, read-out: B1R Antagonism, rat [10 μM] % Inhibition
T2 construct: host or cells: CHO K1 cells (Chinese hamster ovary), stably transfected
T2 sequence (P97583 1-337): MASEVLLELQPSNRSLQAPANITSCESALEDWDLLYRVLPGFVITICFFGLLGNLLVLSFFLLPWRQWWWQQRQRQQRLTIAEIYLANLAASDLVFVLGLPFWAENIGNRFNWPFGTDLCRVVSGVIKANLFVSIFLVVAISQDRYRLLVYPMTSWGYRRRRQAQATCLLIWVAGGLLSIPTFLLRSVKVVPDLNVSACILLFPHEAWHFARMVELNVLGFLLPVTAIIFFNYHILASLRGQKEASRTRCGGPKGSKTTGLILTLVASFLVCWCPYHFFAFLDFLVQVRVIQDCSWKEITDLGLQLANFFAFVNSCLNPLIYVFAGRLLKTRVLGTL
Outline: as §1

**Q.** With `COc1cc(C)c(S(=O)(=O)N2CCCCC2COCC(=O)N2CCC(N3CCC(F)CC3)CC2)c(C)c1` (stereo not drawn) [Example 130, 1-(4-fluoro-1,4′-bipiperidin-1′-yl)-2-((1-(4-methoxy-2,6-dimethylphenylsulfonyl)piperidin-2-yl)methoxy)ethanone] as the compound, how does the inhibition at 10 µM (human B1R receptor) read?
**A.** Its inhibition at 10 µM is 103%.

**Q.** And the inhibition at 10 µM (B1R receptor of the rat)?
**A.** The inhibition at 10 µM was 96.3%.

**Q.** How did the inhibition at 10 µM (human B1R receptor) turn out when `COc1cc(C)c(S(=O)(=O)N2CCCC2COCC(=O)N2CCN(c3ccccc3F)CC2)c(C)c1` (stereo not drawn) [Example 516, 1-(4-(2-fluorophenyl)piperazin-1-yl)-2-((1-(4-methoxy-2,6-dimethylphenylsulfonyl)pyrrolidin-2-yl)methoxy)ethanone] was run?
**A.** Its inhibition at 10 µM is 101%.

**Q.** What about the inhibition at 10 µM (B1R receptor of the rat) of the same compound?
**A.** Its inhibition at 10 µM is 99.4%.

**Q.** For `COCCN1CCN(C(=O)COCC2CCCCN2S(=O)(=O)c2ccc(Cl)c(Cl)c2)CC1` (stereo not drawn) [Example 46, 2-[1-(3,4-dichloro-phenylsulfonyl)-piperidin-2-ylmethoxy]-1-[4-(2-methoxy-ethyl)-piperazin-1-yl]-ethanone], which inhibition at 10 µM (human B1R receptor) is on record?
**A.** Its inhibition at 10 µM is 68.2%.

**Q.** And the inhibition at 10 µM (B1R receptor of the rat)?
**A.** The inhibition at 10 µM was 0%.

**Q.** Which inhibition at 10 µM (human B1R receptor) does the source give for `CN(C)Cc1ccc(CNC(=O)COCC2CCCCN2S(=O)(=O)c2c(Cl)cc(Cl)cc2Cl)cc1` (stereo not drawn) [Example 37, N-(4-dimethylaminomethyl-benzyl)-2-[1-(2,4,6-trichloro-phenylsulfonyl)-piperidin-2-ylmethoxy]-acetamide] here?
**A.** Its inhibition at 10 µM is 78.2%.

**Q.** What about the inhibition at 10 µM (B1R receptor of the rat) of the same compound?
**A.** The inhibition at 10 µM was 103%.

**Q.** Which inhibition at 10 µM (human B1R receptor) does the source give for `COc1cc(C)c(S(=O)(=O)N2CCCC[C@H]2COCC(=O)N2CCC(Oc3ccncc3)CC2)c(C)c1` [Example 186, (S)-2-((1-(4-methoxy-2,6-dimethylphenylsulfonyl)piperidin-2-yl)methoxy)-1-(4-(pyridin-4-yloxy)piperidin-1-yl)ethanone hydrochloride] here?
**A.** Its inhibition at 10 µM is 106%.

**Q.** What about the inhibition at 10 µM (B1R receptor of the rat) of the same compound?
**A.** Its inhibition at 10 µM is 97.1%.

**Q.** With `COc1cc(C)c(S(=O)(=O)N2CCC[C@H]2COCC(=O)N2CCN(CC3CCN(C)CC3)CC2)c(C)c1` [Example 181, (S)-2-((1-(4-methoxy-2,6-dimethylphenylsulfonyl)pyrrolidin-2-yl)methoxy)-1-(4-((1-methylpiperidin-4-yl)methyl)piperazin-1-yl)ethanone] as the compound, how does the inhibition at 10 µM (human B1R receptor) read?
**A.** Its inhibition at 10 µM is 105%.

**Q.** What about the inhibition at 10 µM (B1R receptor of the rat) of the same compound?
**A.** The inhibition at 10 µM was 98.5%.

**Q.** For `O=C(COCC1CCCN1S(=O)(=O)c1ccc(Cl)c(Cl)c1)N1CCN(Cc2ccc3c(c2)OCO3)CC1` (stereo not drawn) [Example 44, 1-(4-benzo[1,3]dioxol-5-ylmethyl-piperazin-1-yl)-2-[1-(3,4-dichloro-phenylsulfonyl)-pyrrolidin-2-ylmethoxy]-ethanone], which inhibition at 10 µM (human B1R receptor) is on record?
**A.** Its inhibition at 10 µM is 69.6%.

**Q.** And the inhibition at 10 µM (B1R receptor of the rat)?
**A.** Its inhibition at 10 µM is 0%.

**Q.** For `O=C(COCC1CCCCN1S(=O)(=O)c1ccc(Br)cc1)N1CCN(c2ccncc2)CC1` (stereo not drawn) [Example 126, 2-((1-(4-bromophenylsulfonyl)piperidin-2-yl)methoxy)-1-(4-(pyridin-4-yl)piperazin-1-yl)ethanone], which inhibition at 10 µM (human B1R receptor) is on record?
**A.** Its inhibition at 10 µM is 46.4%.

**Q.** And the inhibition at 10 µM (B1R receptor of the rat)?
**A.** The inhibition at 10 µM was 81.1%.

**Q.** Which inhibition at 10 µM (human B1R receptor) does the source give for `O=C(COCC1CCCN1S(=O)(=O)c1c(Cl)cccc1Cl)NCC1CCCN(Cc2ccccc2)C1` (stereo not drawn) [Example 323, N-((1-benzylpiperidin-3-yl)methyl)-2-((1-(2,6-dichlorophenylsulfonyl)pyrrolidin-2-yl)methoxy)acetamide] here?
**A.** Its inhibition at 10 µM is 105%.

**Q.** And the inhibition at 10 µM (B1R receptor of the rat)?
**A.** Its inhibition at 10 µM is 88.1%.

**Q.** How did the “B1R Antagonism, human [10 μM] % Inhibition” value (human B1R receptor; test substance 10 μM, hB1R CHO K1 cells) turn out when “N-(3-(1H-benzo[d]imidazol-2-yl)propyl)-2-((1-(4-methoxy-2,6-dimethylphenylsulfonyl)piperidin-2-yl)methoxy)acetamide [Example 525]” was run?
**A.** Its value is 15.41%.

**Q.** And the “B1R Antagonism, rat [10 μM] % Inhibition” value (B1R receptor of the rat; test substance 10 μM, rB1R CHO K1 cells)?
**A.** Its value is 102.31%.

**Q.** Which results are given for `O=C(COCC1CCCCN1S(=O)(=O)c1c(Cl)cccc1Cl)N1CCCN(Cc2ccccc2)CC1` (stereo not drawn) [Example 529, 1-(4-benzyl-1,4-diazepan-1-yl)-2-((1-(2,6-dichlorophenylsulfonyl)piperidin-2-yl)methoxy)ethanone]?
**A.** inhibition at 10 µM (human B1R receptor): 106%; inhibition at 10 µM (B1R receptor of the rat): 101%

**Q.** Which inhibition at 10 µM (human B1R receptor) does the source give for `O=C(COCC1CCCCN1S(=O)(=O)c1c(Cl)cccc1Cl)N1CCN(Cc2ccc(Cl)cc2)CC1` (stereo not drawn) [Example 407, 1-(4-(4-chlorobenzyl)piperazin-1-yl)-2-((1-(2,6-dichlorophenylsulfonyl)piperidin-2-yl)methoxy)ethanone] here?
**A.** The inhibition at 10 µM was 102%.

**Q.** What about the inhibition at 10 µM (B1R receptor of the rat) of the same compound?
**A.** Its inhibition at 10 µM is 99%.
